Source: PubChem BioAssay AID248 (DTP/NCI, 2004)
Values joined by “and” are separate entries in the source; they are usually repeats but may differ in a detail not shown here. Equal values may be shown once. Toxic doses and inconclusive results are not listed. Rule as the data show it: active = T/C of 150% or more; inactive = T/C below 125%.

System: L1210 leukemia ip in BDF1 mice, survival T/C
Assay: NCI In Vivo Anticancer Drug Screen. Data for tumor model L1210 Leukemia (intraperitoneal) in B6D2F1 (BDF1) mice
Conditions: endpoint: mean survival time, higher = longer survival
Outline: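 Ratio derived from survival: compound-dosed mice over vehicle-dosed mice, all bearing a transplantable tumor.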

[1] = dose: 100.0 mg/kg/injection, schedule: Q01DX001 (ip), vehicle: saline
[2] = dose: 200.0 mg/kg/injection, schedule: Q01DX001 (ip), vehicle: saline
[3] = dose: 400.0 mg/kg/injection, schedule: Q01DX001 (ip), vehicle: saline
[4] = dose: 100.0 mg/kg/injection, schedule: Q01DX009 (ip), vehicle: Klucel (hydroxypropylcellulose) (HPC)
[5] = dose: 100.0 mg/kg/injection, schedule: Q04DX003 (ip), vehicle: saline
[6] = dose: 200.0 mg/kg/injection, schedule: Q04DX003 (ip), vehicle: saline
[7] = dose: 400.0 mg/kg/injection, schedule: Q04DX003 (ip), vehicle: saline
[8] = dose: 25.0 mg/kg/injection, schedule: Q04DX003 (ip), vehicle: Klucel (hydroxypropylcellulose) (HPC)
[9] = dose: 50.0 mg/kg/injection, schedule: Q04DX003 (ip), vehicle: Klucel (hydroxypropylcellulose) (HPC)
[10] = dose: 100.0 mg/kg/injection, schedule: Q01DX009 (ip), vehicle: saline
[11] = dose: 200.0 mg/kg/injection, schedule: Q01DX009 (ip), vehicle: saline
[12] = dose: 400.0 mg/kg/injection, schedule: Q01DX009 (ip), vehicle: saline
[13] = dose: 75.0 mg/kg/injection, schedule: Q01DX001 (ip), vehicle: saline
[14] = dose: 150.0 mg/kg/injection, schedule: Q01DX001 (ip), vehicle: saline
[15] = dose: 300.0 mg/kg/injection, schedule: Q01DX001 (ip), vehicle: saline
[16] = dose: 100.0 mg/kg/injection, schedule: Q04DX003 (ip), vehicle: Klucel (hydroxypropylcellulose) (HPC)
[17] = dose: 100.0 mg/kg/injection, schedule: Q04DX003 (ip), vehicle: saline with Tween-80
[18] = dose: 200.0 mg/kg/injection, schedule: Q04DX003 (ip), vehicle: saline with Tween-80
[19] = dose: 400.0 mg/kg/injection, schedule: Q04DX003 (ip), vehicle: saline with Tween-80
[20] = dose: 25.0 mg/kg/injection, schedule: Q04DX003 (ip), vehicle: saline
[21] = dose: 50.0 mg/kg/injection, schedule: Q04DX003 (ip), vehicle: saline
[22] = dose: 12.5 mg/kg/injection, schedule: Q01DX009 (ip), vehicle: saline with Tween-80

Measured: T/C

CC(=O)c1ccc2c(c1)Cc1cc(Br)ccc1-2
inactive: dose: 100.0 mg/kg/injection, schedule: Q01DX001 (ip), vehicle: carboxymethylcellulose (CMC) 97 % of control | dose: 200.0 mg/kg/injection, schedule: Q01DX001 (ip), vehicle: carboxymethylcellulose (CMC) 89 % of control | dose: 400.0 mg/kg/injection, schedule: Q01DX001 (ip), vehicle: carboxymethylcellulose (CMC) 97 % of control

c1ccc(CN2C3C(c4ccccc4)=NN=C(c4ccccc4)C32)cc1 (centres undefined)
inactive: [1] 98 % of control | [2] 102 % of control | [3] 102 % of control

CCCCCCCCCc1c(C)[nH]c2ccccc2c1=O
inactive: [4] 94 % of control | [5] 100 % of control | dose: 200.0 mg/kg/injection, schedule: Q01DX009 (ip), vehicle: Klucel (hydroxypropylcellulose) (HPC) 86 % of control | [6] 104 % of control | dose: 400.0 mg/kg/injection, schedule: Q01DX009 (ip), vehicle: Klucel (hydroxypropylcellulose) (HPC) 86 % of control | [7] 100 % of control

O=C1c2ccccc2C(=O)N1c1c[nH]c(=O)[nH]c1=O
inactive: [8] 95 % of control | [9] 93 % of control

CCOC1C(=O)c2ccccc2CCN1S(=O)(=O)c1ccc(C)cc1 (centres undefined)
inactive: [1] 96 % of control | [10] 101 % of control | [2] 100 % of control | [11] 95 % of control | [3] 103 % of control | [12] 94 % of control

Oc1c(CN2CCCC2)cc(Nc2nc(/C=C/c3ccc(Cl)cc3)nc(Cl)c2-c2ccc(Cl)cc2)cc1CN1CCCC1
inactive: [13] 96 % of control | dose: 75.0 mg/kg/injection, schedule: Q04DX003 (ip), vehicle: Klucel (hydroxypropylcellulose) (HPC) 98 % of control | [14] 96 % of control | dose: 150.0 mg/kg/injection, schedule: Q04DX003 (ip), vehicle: Klucel (hydroxypropylcellulose) (HPC) 91 % of control | [15] 93 % of control | dose: 300.0 mg/kg/injection, schedule: Q04DX003 (ip), vehicle: Klucel (hydroxypropylcellulose) (HPC) 91 % of control

[O]=[Zr]
inactive: [8] 90 % of control | [9] 88 % of control | [16] 88 % of control

O=c1oc2ccc(Cl)cc2c(OCCO)c1Cl
inactive: [17] 94 % of control | [18] 96 % of control | [19] 86 % of control

[O-][n+]1onc2c(-c3ccccc3)nnc(-c3ccccc3)c21
inactive: [17] 108 % of control | [18] 110 % of control | [19] 111 % of control

COc1ccc(C(O)c2cc3ccccc3[nH]2)cc1 (centres undefined)
inactive: dose: 100.0 mg/kg/injection, schedule: Q04DX002 (ip), vehicle: Klucel (hydroxypropylcellulose) (HPC) 95 % of control | dose: 200.0 mg/kg/injection, schedule: Q04DX002 (ip), vehicle: Klucel (hydroxypropylcellulose) (HPC) 109 % of control | dose: 400.0 mg/kg/injection, schedule: Q04DX002 (ip), vehicle: Klucel (hydroxypropylcellulose) (HPC) 106 % of control

COC(=O)c1ccccc1N=NN(C)C1CCCCC1
inactive: dose: 100.0 mg/kg/injection, schedule: Q01DX009 (ip), vehicle: other 106 % of control | dose: 200.0 mg/kg/injection, schedule: Q01DX009 (ip), vehicle: other 87 % of control

Cn1c(=O)c2c(nc(CCCCCCCc3nc4c(c(=O)n(C)c(=O)n4C)n3C)n2C)n(C)c1=O
inactive: [1] 98 % of control | [2] 98 % of control | [3] 98 % of control

CCOP(=O)(CCBr)Oc1ccc([N+](=O)[O-])cc1 (centres undefined)
inactive: dose: 0.5 mg/kg/injection, schedule: Q01DX001 (ip), vehicle: saline 97 % of control | dose: 1.0 mg/kg/injection, schedule: Q01DX001 (ip), vehicle: saline 97 % of control | dose: 2.0 mg/kg/injection, schedule: Q01DX001 (ip), vehicle: saline 103 % of control | dose: 4.0 mg/kg/injection, schedule: Q01DX001 (ip), vehicle: saline 107 % of control

OCCc1nn[nH]n1
inactive: [5] 104 % of control | [6] 93 % of control | [7] 98 % of control

O=c1[nH]c2ccccc2nc1C(Br)Br
inactive: [16] 97 % of control | dose: 200.0 mg/kg/injection, schedule: Q04DX003 (ip), vehicle: Klucel (hydroxypropylcellulose) (HPC) 105 % of control | dose: 400.0 mg/kg/injection, schedule: Q04DX003 (ip), vehicle: Klucel (hydroxypropylcellulose) (HPC) 97 % of control

CCOC(=N)Cc1cc(OC)c(OC)c(OC)c1
inactive: dose: 100.0 mg/kg/injection, schedule: Q04DX003 (ip), vehicle: saline sonified 100 % of control | dose: 200.0 mg/kg/injection, schedule: Q04DX003 (ip), vehicle: saline sonified 98 % of control | dose: 400.0 mg/kg/injection, schedule: Q04DX003 (ip), vehicle: saline sonified 102 % of control

CC(C)OCCCN=C(N)N
inactive: dose: 12.5 mg/kg/injection, schedule: Q01DX009 (ip), vehicle: saline 100 % of control | dose: 25.0 mg/kg/injection, schedule: Q01DX009 (ip), vehicle: saline 98 % of control | [20] 101 % of control | dose: 50.0 mg/kg/injection, schedule: Q01DX009 (ip), vehicle: saline 102 % of control and 104 % of control | [21] 96 % of control | [5] 96 % of control

O=C(CCc1ccccc1)NC(=S)Nc1cccc([N+](=O)[O-])c1
inactive: [22] 96 % of control and 98 % of control | dose: 50.0 mg/kg/injection, schedule: Q04DX003 (ip), vehicle: saline with Tween-80 96 % of control | dose: 100.0 mg/kg/injection, schedule: Q01DX001 (ip), vehicle: saline with Tween-80 93 % of control | dose: 100.0 mg/kg/injection, schedule: Q04DX002 (ip), vehicle: alcohol 104 % of control | [17] 91 % of control | dose: 200.0 mg/kg/injection, schedule: Q01DX001 (ip), vehicle: saline with Tween-80 104 % of control | dose: 200.0 mg/kg/injection, schedule: Q04DX002 (ip), vehicle: alcohol 93 % of control and 100 % of control | [18] 86 % of control | dose: 400.0 mg/kg/injection, schedule: Q04DX002 (ip), vehicle: alcohol 96 % of control

CCN(CC)CCCNC(=S)NC(C)(C)CC(C)=O
inactive: dose: 50.0 mg/kg/injection, schedule: Q01DX009 (ip), vehicle: Klucel (hydroxypropylcellulose) (HPC) 89 % of control | [4] 105 % of control | [5] 97 % of control | [6] 101 % of control | [7] 100 % of control

CS(=O)(=O)c1cccc(N)c1
inactive: [1] 102 % of control | [2] 91 % of control | [3] 98 % of control

CC1=CC(=O)NC1=O
inactive: [20] 103 % of control | [21] 98 % of control | [5] 97 % of control

NC(=O)CNCCS(=O)(=O)O
inactive: [10] 101 % of control | [5] 97 % of control | [11] 107 % of control | [6] 97 % of control | [12] 101 % of control | [7] 100 % of control

C/C=C/CC1(CC)C(=O)NC(=O)NC1=O
inactive: dose: 75.0 mg/kg/injection, schedule: Q01DX001 (ip), vehicle: other 98 % of control | [13] 93 % of control | dose: 150.0 mg/kg/injection, schedule: Q01DX001 (ip), vehicle: other 110 % of control | [14] 102 % of control | dose: 300.0 mg/kg/injection, schedule: Q01DX001 (ip), vehicle: other 96 % of control

CCN(CC)c1ccc(/C=N/NC(=S)NC23CC4CC(CC(C4)C2)C3)cc1
inactive: [13] 100 % of control | [14] 101 % of control | [15] 92 % of control

CC(=O)OCC1OC(N=C=S)C(OC(C)=O)C(OC(C)=O)C1OC(C)=O (centres undefined)
inactive: [22] 97 % of control | dose: 25.0 mg/kg/injection, schedule: Q01DX009 (ip), vehicle: saline with Tween-80 100 % of control | dose: 50.0 mg/kg/injection, schedule: Q01DX009 (ip), vehicle: saline with Tween-80 93 % of control
